Data from BindingDB's records for patent US12427146 (Inventisbio Co., 2025).
pIC50: −log10 of the molar value.

Legend:
[1] = biological target: Tyrosine-protein kinase CSK (Homo sapiens, UniProt P41240); test: CSK Inhibition Assay
Protocol: Test compound was dissolved in DMSO at 10 mM. 45 uL of compound was transferred into a 384-well compound source plate (LABCYTE cat #P-05525) and serially diluted at 1:3 ratio to create a 11-point dilutions. The same volume of DMSO was adopted as high control. 20 nL of these compounds DMSO dilutes were dispensed into a new 384-well assay plate by Echo 550. […] 15 uL of kinase assay buffer containing CSK protein and substrate was transferred to assay plate and incubated at RT for 30 minutes. Kinase assay buffer supplemented with substrate peptides was employed as low control to monitor the background. 4 μM of ATP was prepared in kinase assay buffer and 5 μL of ATP solution was added to each well to start the reaction. The assay plate was incubated at 25° C. for 90 minutes and the reaction was stopped by adding 40 μL of 0.5 M EDTA.

[2] = biological target: Tyrosine-protein kinase Lck (Homo sapiens, UniProt P06239); test: LCK Inhibition Assay
Protocol: Test compound was dissolved in DMSO at 10 mM. 45 uL of compound was transfer into a 384-well compound source plate (LABCYTE cat #P-05525) and serially diluted at 1:3 ratio to create a 11-point dilutions. The same volume of DMSO was adopted as high control. 20 nL of these compounds DMSO dilutes were dispensed into a new 384-well assay plate by Echo 550. LCK protein (0.50 nM, Cama Biosciences, cat #08-170), florescent labeled substrate FLPeptide4 (2 μM, PerkinElmer, cat #760348) was prepared in kinase assay buffer (50 mM HEPES (pH 7.5), 10 mM MgCl2, 0.01% Brij-35, 2 mM DTT and 0.005 mg/ml BSA). 15 uL of kinase assay buffer containing LCK protein and substrate was transferred to assay plate and incubate at RT for 30 minutes. Kinase assay buffer supplemented with substrate peptides was employed as low control to monitor the background. 400 μM ATP was prepared in kinase assay buffer and 5 μL of ATP solution was added to each well to start the reaction. The assay plate was incubated at 25° C. for 90 minutes and the reaction was stopped by adding 40 μL of 0.5 M EDTA.

Sequence of Tyrosine-protein kinase Lck (P06239 whole entry): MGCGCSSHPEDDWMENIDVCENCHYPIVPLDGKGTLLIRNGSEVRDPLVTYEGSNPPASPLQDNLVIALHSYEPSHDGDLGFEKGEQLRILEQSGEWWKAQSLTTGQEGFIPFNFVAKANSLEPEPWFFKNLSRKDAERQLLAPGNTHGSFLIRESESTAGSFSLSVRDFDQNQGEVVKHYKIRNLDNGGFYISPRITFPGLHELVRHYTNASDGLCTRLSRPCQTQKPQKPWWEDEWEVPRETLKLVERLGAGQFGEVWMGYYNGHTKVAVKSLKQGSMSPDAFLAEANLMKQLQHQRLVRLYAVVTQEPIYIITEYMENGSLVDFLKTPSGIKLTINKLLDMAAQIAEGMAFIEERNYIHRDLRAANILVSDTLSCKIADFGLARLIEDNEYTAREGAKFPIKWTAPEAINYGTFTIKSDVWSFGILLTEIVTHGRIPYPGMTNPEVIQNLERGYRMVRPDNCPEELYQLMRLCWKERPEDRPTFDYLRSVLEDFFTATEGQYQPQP

| pIC50 [1] | pIC50 [2] | SMILES |
| --- | --- | --- |
| 6.88 | < 6.00 | Nc1nccc(-c2sc(-c3ccccc3)nc2-c2cc(F)cc(NS(=O)(=O)c3c(F)cccc3F)c2)n1 [US12427146, Compound 20] |
| < 5.00 | – | Nc1nccc(-c2sc(-c3ccccc3)nc2-c2cccc(NS(=O)(=O)c3ccc4c(c3)CNC4)c2F)n1 [US12427146, Compound 82] |
| 7.60 | – | COc1cc(NS(=O)(=O)c2c(F)cccc2F)cc(-c2nc(-c3cncc(F)c3)sc2-c2ccnc(N)n2)c1 [US12427146, Compound 21] |
| 8.39 | > 7.00 | COc1cc(NS(=O)(=O)c2c(F)cccc2F)c(F)c(-c2nc(-c3ccccc3)sc2-c2ccnc(N)n2)c1 [US12427146, Compound 23] |
| 7.35 | < 6.00 | COc1cc(F)c(S(=O)(=O)Nc2cccc(-c3nc(-c4ccccc4)sc3-c3ccnc(N)n3)c2F)c(F)c1 [US12427146, Compound 22] |
| 5.35 | – | Nc1nccc(-c2sc(-c3ccccc3)nc2-c2cccc(NS(=O)(=O)c3ccc4c(c3)CNC4=O)c2F)n1 [US12427146, Compound 81] |
